Earlier results in US7468367B2, “Ethylene diamine derivatives and their use as orexin-receptor antagonists” (Smithkline Beecham p.l.c., priority 2001, dated 2008).

Legend:
orexin receptors = conditions: central administration at the onset of the normal sleep period
freely-feeding rats = conditions: central administration, 4 hour time period

orexin-A: peptide ligand and agonist of the orexin receptors; the human amino acid sequence is given in the 1st table (QPLPDCCRQKTCSCRLYELLHGAGNHAAGILTL; not fully specified; Orexin-A; UniProt O43612 34-66, looked up)
arousal in rat sleep/EEG (orexin receptors): dose-related increase in arousal | increase in food intake over control rats receiving vehicle (freely-feeding rats): approximately four-fold
